US11034692B1 (Genentech, Inc., priority 2017, dated 2021)
Like-named read-outs stand apart in the source and are kept apart here.

Biological target: HPK1
Test: HPK1 Lantha Binding Assay ("Lanth")
Protocol: HPK1 Lantha Binding Assay (“Lanth”)
The compounds to be tested were diluted by preparing 12.5 uL/well of 5 mM compound (100×) in columns 2 and 13 and 10 ul/well of DMSO in columns 3-12, 14-23, and wells A1-H1 and I24-P24 of the compound plate using a Bravo liquid handling platform. For the reference compound, the top concentration was 1 mM. To the plate was added 10 ul 2 mM staurosporine in wells J1-P1 and A24-H24. A 11 point 5-fold compound serial dilution was performed using the Bravo liquid handling platform. From the plate were transferred 2.5 ul of the solutions from column 2 and column 13 to the 10 ul of DMSO in columns 3 and 14 & so on. The compound plate was centrifuged at 2500 rpm for 1 min. From the compound plate was transferred 80 nl of the compounds into an assay plate using the Echo liquid handler system. One compound plate makes two assay plates. Each assay plate is sealed and stored in an N2 cabinet.
The following assay concentrations and times were used: 2 nM HPK1, 2 nM Eu-Anti-GST Ab, and 15 nM Tracer222, with 60 min incubation time.
III. HPK Lantha Binding Assay:
For the binding assay, 4 ul 2×HPK1 and Eu-anti-GST antibody were added to each well of the assay plate using a Multidrop reagent dispenser. The solutions were incubated in a 23 C incubator for 1 h. To each well of the assay plate was added 4 ul 2× Tracer-222 using a Multidrop reagent dispenser. The solutions were again incubated in a 23 C incubator for 1 h. The results of the assay were read using an Envision plate reader with the following parameters: TR_FRET, 340ex/615 and 665em; 100 usec Delay; and 200 usec integration.
Compound Ki was analyzed using Morrison ki fit model in XL-fit • a. fit=(1−((((E+x)+(Ki*(1+(S/Kd))))−(((((E+x)+(Ki*(1+(S/Kd))))[…])−((4*E)*x))^0.5))/(2*E))) • res=(y-fit) • b. Parameters: • E=enzyme concentration • S=Tracer222 concentration, Kd=Tracer222 Kd • All measurements reported using the same units (uM)
Exemplary compounds of Formula I or Ia were tested in the binding assays. The Ki data in Table B1-1 are based on the “Lanth” assay.

[1] = Table B1-1, read-out: HPK1 Ki (μM) (Lanth)

Compound | Ki [1] | Ki (Table B1-2, read-out: HPK1 Ki, L = Lanth)
Cc1cc(C2=N[C@@H](C(C)C)CO2)ncc1-c1cc2cc(NC(=O)[C@H]3C[C@@H]3c3cnn(C)c3)ncc2c(N)n1 (stereo in doubt) [Compound 384, trans-N-(8-amino-6-(6-((S)-4-isopropyl-4,5-dihydrooxazol-2-yl)-4-methylpyridin-3-yl)-2,7-naphthyridin-3-yl)-2-(1-methyl-1H-pyrazol-4-yl)cyclopropane-1-carboxamide] | – | 0.0018 µM
CNC(=O)Nc1cc2cc(-c3cnn(C)c3)nc(N)c2cn1 [Compound 9, 1-(8-amino-6-(1-methyl-1H-pyrazol-4-yl)-2,7-naphthyridin-3-yl)-3-methylurea] | 0.00716 µM | –
Cc1ccncc1-c1cc2cc(NC(=O)C3CC3(F)F)ncc2c(N)n1 (centres unmarked) [Compound 11, N-(8-amino-6-(4-methylpyridin-3-yl)-2,7-naphthyridin-3-yl)-2,2-difluorocyclopropanecarboxamide] | 0.00365 µM | –
Cc1ncncc1-c1cc2cc(NC(=O)[C@@H]3C[C@@H]3F)ncc2c(N)n1 [Compound 12, (1S,2S)—N-(8-amino-6-(4-methylpyrimidin-5-yl)-2,7-naphthyridin-3-yl)-2-fluorocyclopropanecarboxamide] | 0.0493 µM | –
CCc1ncncc1-c1cc2cc(NC(=O)[C@@H]3C[C@@H]3F)ncc2c(N)n1 [Compound 13, (1S,2S)—N-(8-amino-6-(4-ethylpyrimidin-5-yl)-2,7-naphthyridin-3-yl)-2-fluorocyclopropanecarboxamide] | 0.0156 µM | –
Nc1nc(-c2cnccc2C(F)F)cc2cc(NC(=O)[C@@H]3C[C@@H]3F)ncc12 [Compound 14, (1S,2S)—N-(8-amino-6-(4-(difluoromethyl)pyridin-3-yl)-2,7-naphthyridin-3-yl)-2-fluorocyclopropanecarboxamide] | 0.00946 µM | –
N#Cc1ccncc1-c1cc2cc(NC(=O)[C@@H]3C[C@@H]3F)ncc2c(N)n1 [Compound 15, (1S,2S)—N-(8-amino-6-(4-cyanopyridin-3-yl)-2,7-naphthyridin-3-yl)-2-fluorocyclopropanecarboxamide] | 0.0226 µM | –
Cc1c(F)cncc1-c1cc2cc(NC(=O)[C@@H]3C[C@@H]3F)ncc2c(N)n1 [Compound 17, (1S,2S)—N-(8-amino-6-(5-fluoro-4-methylpyridin-3-yl)-2,7-naphthyridin-3-yl)-2-fluorocyclopropanecarboxamide] | 0.0161 µM | –
Cn1nccc1-c1cc2cc(NC(=O)[C@@H]3C[C@@H]3F)ncc2c(N)n1 [Compound 18, (1S,2S)—N-(8-amino-6-(1-methyl-1H-pyrazol-5-yl)-2,7-naphthyridin-3-yl)-2-fluorocyclopropanecarboxamide] | 0.0475 µM | –
CCc1ccncc1-c1cc2cc(NC(=O)CCC#N)ncc2c(N)n1 [Compound 28, N-[8-amino-6-(4-ethyl-3-pyridyl)-2,7-naphthyridin-3-yl]-3-cyano-propanamide] | 0.0149 µM | –
CCc1ccncc1-c1cc2cc(NC(=O)CCC(N)=O)ncc2c(N)n1 [Compound 29, N′-[8-amino-6-(4-ethyl-3-pyridyl)-2,7-naphthyridin-3-yl]butanediamide] | 0.014 µM | –
CCc1ccncc1-c1cc2cc(NC(=O)NC(C)C)ncc2c(N)n1 [Compound 31, 1-[8-amino-6-(4-ethyl-3-pyridyl)-2,7-naphthyridin-3-yl]-3-isopropyl-urea] | 0.0039 µM | –
CCc1ccncc1-c1cc2cc(NC(=O)CC#N)ncc2c(N)n1 [Compound 32, N-[8-amino-6-(4-ethyl-3-pyridyl)-2,7-naphthyridin-3-yl]-2-cyano-acetamide] | 0.0264 µM | –
CCc1ccncc1-c1cc2cc(NC(=O)N(C)C)ncc2c(N)n1 [Compound 33, 3-[8-amino-6-(4-ethyl-3-pyridyl)-2,7-naphthyridin-3-yl]-1,1-dimethyl-urea] | 0.0341 µM | –
Cc1ccncc1-c1cc2cc(NC(=O)C(C)(C)C#N)ncc2c(N)n1 [Compound 35, N-(8-amino-6-(4-methylpyridin-3-yl)-2,7-naphthyridin-3-yl)-2-cyano-2-methylpropanamide] | 5.54 µM | –
COC(C)(C)C(=O)Nc1cc2cc(-c3cnccc3C)nc(N)c2cn1 [Compound 36, N-(8-amino-6-(4-methylpyridin-3-yl)-2,7-naphthyridin-3-yl)-2-methoxy-2-methylpropanamide] | 4.08 µM | –
Cc1ccncc1-c1cc2cc(NC(=O)C(C)(C)O)ncc2c(N)n1 [Compound 39, N-(8-amino-6-(4-methylpyridin-3-yl)-2,7-naphthyridin-3-yl)-2-hydroxy-2-methylpropanamide] | 2.03 µM | –
Nc1nc(N2CCOC2=O)cc2cc(NC(=O)C3CC3)ncc12 [Compound 40, N-(8-amino-6-(2-oxooxazolidin-3-yl)-2,7-naphthyridin-3-yl)cyclopropanecarboxamide] | 0.098 µM | –
Nc1nc(-c2cnccc2CO)cc2cc(NC(=O)[C@@H]3C[C@@H]3F)ncc12 [Compound 44, (1S,2S)—N-(8-amino-6-(4-(hydroxymethyl)pyridin-3-yl)-2,7-naphthyridin-3-yl)-2-fluorocyclopropanecarboxamide] | 0.048 µM | –

Next, values leading:

Ki [1] | Ki (Table B1-2, read-out: HPK1 Ki, L = Lanth) | Compound
0.0012 µM | – | Cc1cc2c(cc1-c1cc3cc(NC(=O)[C@H]4C[C@@H]4C#N)ncc3c(N)n1)C(O)C(=O)N2 (relative stereo) [Compound 160, trans-N-[8-amino-6-(3-hydroxy-6-methyl-2-oxo-indolin-5-yl)-2,7-naphthyridin-3-yl]-2-cyano-cyclopropanecarboxamide]
0.000768 µM | – | CCc1c(-c2cnccc2C)nc(N)c2cnc(NC(=O)[C@@H]3C[C@H]3CC#N)cc12 (stereo in doubt) [Compound 271, (1R,2S)—N-[8-amino-5-ethyl-6-(4-methylpyridin-3-yl)-2,7-naphthyridin-3-yl]-2-(cyanomethyl)cyclopropane-1-carboxamide]
0.00302 µM | – | Cn1cc([C@H]2C[C@@H]2C(=O)Nc2cc3cc(-c4ccccc4Cl)nc(N)c3cn2)cn1 (stereo in doubt) [Compound 304, (1S,2S)—N-[8-amino-6-(2-chlorophenyl)-2,7-naphthyridin-3-yl]-2-(1-methyl-1H-pyrazol-4-yl)cyclopropane-1-carboxamide]
0.00325 µM | – | Cn1cc([C@H]2C[C@@H]2C(=O)Nc2cc3cc(-c4c(F)cccc4F)nc(N)c3cn2)cn1 (stereo in doubt) [Compound 306, (1S,2S)—N-[8-amino-6-(2,6-difluorophenyl)-2,7-naphthyridin-3-yl]-2-(1-methyl-1H-pyrazol-4-yl)cyclopropane-1-carboxamide]
0.000112 µM | – | Cn1cc([C@@H]2C[C@H]2C(=O)Nc2cc3cc(-c4c(F)cccc4F)nc(N)c3cn2)cn1 (stereo in doubt) [Compound 307, (1R,2R)—N-[8-amino-6-(2,6-difluorophenyl)-2,7-naphthyridin-3-yl]-2-(1-methyl-1H-pyrazol-4-yl)cyclopropane-1-carboxamide]
0.000793 µM | – | Cc1ccncc1-c1cc2cc(NC(=O)[C@@H]3C[C@@H]3F)ncc2c(N)n1 [Compound 6, (1S,2S)—N-(8-amino-6-(4-methylpyridin-3-yl)-2,7-naphthyridin-3-yl)-2-fluorocyclopropanecarboxamide]
0.00289 µM | – | Cn1cc(-c2cc3cc(NC(=O)[C@@H]4C[C@@H]4F)ncc3c(N)n2)cn1 [Compound 7, (1S,2S)—N-(8-amino-6-(1-methyl-1H-pyrazol-4-yl)-2,7-naphthyridin-3-yl)-2-fluorocyclopropanecarboxamide]
0.00173 µM | – | COc1ccncc1-c1cc2cc(NC(=O)[C@@H]3C[C@@H]3F)ncc2c(N)n1 [Compound 10, (1S,2S)—N-(8-amino-6-(4-methoxypyridin-3-yl)-2,7-naphthyridin-3-yl)-2-fluorocyclopropanecarboxamide]
0.00322 µM | – | CCc1ccncc1-c1cc2cc(NC(=O)C3CCC3)ncc2c(N)n1 [Compound 20, N-[8-amino-6-(4-ethyl-3-pyridyl)-2,7-naphthyridin-3-yl]cyclobutanecarboxamide]
0.00154 µM | – | Cc1cc(CO)ncc1-c1cc2cc(NC(=O)C3CC3)ncc2c(N)n1 [Compound 25, N-(8-amino-6-(6-(hydroxymethyl)-4-methylpyridin-3-yl)-2,7-naphthyridin-3-yl)cyclopropanecarboxamide]
0.00021 µM | – | CCc1ccncc1-c1cc2cc(NC(=O)C3CC3)ncc2c(N)n1 [Compound 26, N-(8-amino-6-(4-ethylpyridin-3-yl)-2,7-naphthyridin-3-yl)cyclopropanecarboxamide]
0.00108 µM | – | Cn1cc(-c2cc3cc(NC(=O)C4CC4)ncc3c(N)n2)cn1 [Compound 27, N-[8-amino-6-(1-methylpyrazol-4-yl)-2,7-naphthyridin-3-yl]cyclopropanecarboxamide]
0.00175 µM | – | CCc1ccncc1-c1cc2cc(NC(=O)NCc3cncs3)ncc2c(N)n1 [Compound 30, 1-[8-amino-6-(4-ethyl-3-pyridyl)-2,7-naphthyridin-3-yl]-3-(thiazol-5-ylmethyl)urea]
